Laboratory results reported in the RepoRT retention time repository.

Assay: Waters ACQUITY UPLC BEH C18, 100 × 2.1 mm, 1.7 µm, 40 °C, 0.3 to 0.4 mL/min, estimated dead time 0.63 min; A: water + 0.1% formic acid; B: methanol + 0.1% formic acid; gradient (min/%B) 0/0.5 0.1/0.5 10/80 10.1/99.5 12/99.5
Conditions: stereoisomer not certain

SMILES | LC retention time
COc1ccc(C2OCC3C(c4ccc(OC5OC(CO)C(O)C(O)C5O)c(OC)c4)OCC23)cc1OC (stereo not drawn) | 5.13 min
CCN1CC2(COC)C(O)CC(OC)C34C5CC6(O)C(OC)C(O)C(OC(C)=O)(C5C6OC(=O)c5ccccc5)C(C(OC)C23)C14 (stereo not drawn) | 5.97 min
CC(C)C(O)(C(=O)OCC1=CCN2CCC(O)C12)C(C)O (stereo not drawn) | 2.75 min
c1ccc2c(c1)CN1CCCC1=N2 | 2.8 min
C=C1C2CC3(C1O)C1CC4C5(C)CCC(O)C4(C1N(CC)C5)C3CC2O (stereo not drawn) | 3.05 min
C[N+]1([O-])CCCC1c1cccnc1 (stereo not drawn) | 1.82 min
O=c1c(OC2OC(CO)C(O)C(O)C2O)c(-c2ccc(OC3OC(CO)C(O)C(O)C3O)c(O)c2)oc2cc(O)cc(O)c12 (stereo not drawn) | 3.54 min
CCCCCC=CC=CC(CCCCCCCC(=O)O)OO (stereo not drawn) | 8 min
COc1c2c(cc3c1OCO3)CCN(C)C2 | 3.33 min
O=c1cc(-c2ccc(O)cc2)oc2cc(O)cc(O)c12 | 5.89 min
CC1OC(OC2C(CO)OC(OCC3OC(OC(=O)C45CCC(C)(C)CC4C4=CCC6C7(C)CCC(OC8OCC(O)C(O)C8OC8OC(C)C(O)C(O)C8O)C(C)(CO)C7CCC6(C)C4(C)CC5)C(O)C(O)C3O)C(O)C2O)C(O)C(O)C1O (stereo not drawn) | 5.38 min
OCC=Cc1ccc(O)cc1 | 3.76 min
CCC12CCCN3CCc4c(n(c5ccccc45)C(=O)C1)C32 (stereo not drawn) | 4.65 min
CC1OC(Oc2cc3c(O)cc(O)cc3[o+]c2-c2ccc(O)c(O)c2)C(O)C(O)C1O (stereo not drawn) | 3.18 min
CN1c2ccccc2C(=O)N2CCc3c([nH]c4ccccc34)C21 (stereo not drawn) | 7.77 min
c1ccc2c(c1)[nH]c1cnccc12 | 3.48 min
O=C(C=Cc1ccc(O)c(O)c1)NCCCCN(CCCNC(=O)C=Cc1ccc(O)cc1)C(=O)C=Cc1ccc(O)c(O)c1 | 5 min
CC(C)=CCCC(C)(OC1OC(COC2OCC(O)C(O)C2O)C(O)C(O)C1O)C1CCC2(C)C1C(O)CC1C3(C)CCC(OC4OC(CO)C(O)C(O)C4OC4OC(CO)C(O)C(O)C4O)C(C)(C)C3CCC12C (stereo not drawn) | 6.14 min
O=c1c(OC2OC(CO)C(O)C(O)C2O)c(-c2ccc(O)c(O)c2)oc2cc(O)cc(O)c12 (stereo not drawn) | 4.03 min
COc1cc(-c2oc3cc(O)cc(O)c3c(=O)c2O)ccc1O | 6.14 min
CC(C)=CCCC(C)(OC1OC(CO)C(O)C(O)C1O)C1CCC2(C)C1C(O)CC1C3(C)CCC(O)C(C)(C)C3C(OC3OC(CO)C(O)C(O)C3OC3OC(C)C(O)C(O)C3O)CC12C (stereo not drawn) | 4.79 min
O=CC=Cc1ccc(O)cc1 | 4.53 min
CC1OC(OC2C(OC3C(OC4CCC5(C)C(CCC6(C)C5CC=C5C7CC(C)(C)CC(=O)C7(C)CCC56C)C4(C)CO)OC(C(=O)O)C(O)C3O)OCC(O)C2O)C(O)C(O)C1O (stereo not drawn) | 7.85 min
COc1ccc(Cc2nccc3cc(OC)c(OC)cc23)cc1OC | 4.49 min
COc1ccc2cc1Oc1ccc(cc1)CC1=NCCc3cc(OC)c(cc31)Oc1c(OC)c(OC)c(OC)c3c1C(C2)N(C)CC3 (stereo not drawn) | 4.25 min
CC(C)=CCCC(C)(O)C1CCC2(C)C1C(O)CC1C3(C)CCC(O)C(C)(C)C3C(OC3OC(CO)C(O)C(O)C3OC3OC(C)C(O)C(O)C3O)CC12C (stereo not drawn) | 6.25 min
CC1CCC2C(C)C3C(CC4C5CC=C6CC(OC7OC(CO)C(O)C(OC8OC(CO)C(O)C(O)C8O)C7O)CCC6(C)C5CCC43C)N2C1 (stereo not drawn) | 4.65 min
CCC1C(=O)OCc2c1cc1n(c2=O)Cc2cc3ccccc3nc2-1 (stereo not drawn) | 5.77 min

The next lines start with the values.

LC retention time | SMILES
4.78 min | O=C(O)CCCCCCCC(=O)O
2.98 min | CC(C)C(NC(=O)C(N)Cc1ccccc1)C(=O)O (stereo not drawn)
4.96 min | COc1cc(CC2COC(c3ccc(O)c(OC)c3)C2CO)ccc1O (stereo not drawn)
2.48 min | CC(C)C(=O)OC(CC(=O)[O-])C[N+](C)(C)C (stereo not drawn)
5.62 min | O=C(C=Cc1ccc(O)cc1)NCCCCN(CCCNC(=O)C=Cc1ccc(O)cc1)C(=O)C=Cc1ccc(O)cc1
9.29 min | COc1c(CC=C(C)C)c(O)cc2c1C1Oc3cc(O)c(CC=C(C)C)cc3C1CO2 (stereo not drawn)
4.43 min | CS(=O)CCCCCCCCC(=O)O (stereo not drawn)
2.4 min | CC(CSCC(NC(=O)CCC(NCC1(O)OCC(O)C(O)C1O)C(=O)O)C(=O)NCC(=O)O)C(=O)O (stereo not drawn)
4.36 min | COc1cc(-c2cc(=O)c3c(O)cc(OC4OC(CO)C(O)C(O)C4OC4OC(C)C(O)C(O)C4O)cc3o2)cc(OC)c1O (stereo not drawn)
2.15 min | CC(C)C(N)C(=O)NC(C(=O)O)C(C)C (stereo not drawn)
4.59 min | COc1ccc(C2CC(=O)c3c(O)cc(OC4OC(CO)C(O)C(O)C4OC4OC(C)C(O)C(O)C4O)cc3O2)cc1O (stereo not drawn)
4.26 min | CCC12C=CCN3CCc4c(n(c5ccccc45)C(O)(C(=O)OC)C1)C32 (stereo not drawn)
3.29 min | CC(C)CC(N)C(=O)NC(CC(C)C)C(=O)O (stereo not drawn)
3.11 min | COc1cc2ccc(=O)oc2cc1OC1OC(CO)C(O)C(O)C1O (stereo not drawn)
7.01 min | COc1c(CC=C(C)C)c(O)cc2oc(=O)c(-c3ccc(O)cc3O)cc12
2.36 min | CC(C)CC(NC(=O)C(C)N)C(=O)O (stereo not drawn)
4.1 min | O=C(O)CCCCCCC(=O)O
9.91 min | CCCCCCCCCCCCCCCC(=O)OCC(O)COP(=O)([O-])OCC[N+](C)(C)C (stereo not drawn)

LC retention time | SMILES
4.67 min | COc1ccc(-c2coc3cc(OC4OC(COC(=O)CC5CCNCC5)C(O)C(O)C4O)c(OC)cc3c2=O)cc1 (stereo not drawn)
5.18 min | COc1ccc(CC2COC(=O)C2Cc2ccc(OC3OC(CO)C(O)C(O)C3O)c(OC)c2)cc1OC (stereo not drawn)
7.45 min | CCCCCC(O)CC(=O)CCc1ccc(O)c(OC)c1 (stereo not drawn)
4.51 min | COc1ccc(C2CC(=O)c3c(O)cc(OC4OC(COC5OC(C)C(O)C(O)C5O)C(O)C(O)C4O)cc3O2)cc1O (stereo not drawn)
3.22 min | COc1cc(C=CC(=O)NCCCCN=C(N)N)ccc1O
2.7 min | CSCC1OC(n2cnc3c(N)ncnc32)C(O)C1O (stereo not drawn)
7.27 min | COc1c(O)cc(O)c2c(=O)cc(-c3ccccc3)oc12
1.94 min | CCC(C)C(N)C(=O)O (stereo not drawn)
4 min | O=C(O)C1OC(OC2C(Oc3cc(O)c4c(=O)cc(-c5ccc(O)c(O)c5)oc4c3)OC(C(=O)O)C(O)C2O)C(O)C(O)C1O (stereo not drawn)
4.54 min | COc1cc(-c2cc(=O)c3c(O)cc(OC4OC(C(=O)O)C(O)C(O)C4O)cc3o2)cc(OC)c1O (stereo not drawn)
5.23 min | COc1c(CO)c(OC2OC(COC3OCC(O)C(O)C3O)C(O)C(O)C2O)cc2c1C(=O)c1ccccc1C2=O (stereo not drawn)
7.75 min | CC(C)=CCc1cc(C2CC(=O)c3c(O)cc(O)cc3O2)cc(O)c1O (stereo not drawn)
2 min | Nc1[nH]c(=O)[nH]c(=O)c1OC1OC(CO)C(OC2OC(CO)C(O)C(O)C2O)C(O)C1O (stereo not drawn)
3.29 min | CCSSCC(NCC1(O)OCC(O)C(O)C1O)C(=O)NCCC(=O)O (stereo not drawn)
2.38 min | CC(C)CC(NC(=O)C(N)CO)C(=O)O (stereo not drawn)
4.38 min | COc1cc(C=CNC(=O)C=Cc2ccc(O)c(OC)c2)ccc1O
4.55 min | CCCCCCCCCCCCC(O)C(O)C(COC1OC(CO)C(O)C(O)C1O)NC(C)=O (stereo not drawn)
